Data taken from US20240327415A1, “Multicomponent Complexes, Including Salts, Crystalline Forms, and Hydrates and Solvates of ENT1 Inhibitors” (iTeos Belgium SA, priority 2023, published 2024).

How the values were obtained:
Format in all cases: physicochemical
[1] = pH solubility studies in buffers and biorelevant media (Example 16); details: for ML purity / Solub.: 24 h; for solubility: 24 hours
Method: (§1) Example 16—pH Solubility Studies—(1) Crystalline Form 2 Compound 1 di(hydrogen sulfate) trihydrate, (2) Crystalline Form 3 Compound 1 di(hydrogen sulfate), and (3) Crystalline Form 4 Compound 1 mono(hydrogen sulfate): pH solubility studies were carried out on the prepared crystalline Form 2 Compound 1 di(hydrogen sulfate) trihydrate, crystalline Form 3 Compound 1 di(hydrogen sulfate) and crystalline Form 4 Compound 1 mono(hydrogen sulfate) in the following media: (1) HCl/KCl, pH 1.2; (2) Acetate, pH 4.5; (3) Phosphate, pH 6.8; (4) FaSSIF; (5) FeSSIF; and (6) FaSSGF. Slurries of the hydrogen sulfate forms were prepared in the appropriate medium and stirred at 25° C. For the experiments in the buffer media, the pH of the slurry samples was measured and adjusted as required after 1 hour and 23 hours of the slurrying. Additional solid was added where dissolution was observed post-adjustment. The pH of the samples in the biorelevant media was measured at the 23 hour timepoint. No pH adjustment was made for the biorelevant media. After a total of 24 hours of slurrying, the mother liquors were extracted via centrifugation, and the concentrations and solution purity were determined by HPLC. The residual solids were isolated and analyzed by XRPD and are shown in FIG. 77, FIG. 78, and FIG. 79. The assessment was repeated for some of the samples, where required.

[2] = Variable Humidity X-Ray Powder Diffraction (VH-XRPD)
Method: In the examples below, VH-XRPD analysis was carried out on a Philips X'Pert Pro Multipurpose diffractometer equipped with a humidity chamber. The samples were scanned between 4 and 36° 2θ using Cu K radiation (α1λ=1.54060 Å; α2=1.54443 Å; β=1.39225 Å; α1: α2 ratio=0.5; most, if not all, B radiation is removed from the beam using an X-ray mirror) running in Bragg-Brentano geometry (step size 0.008° 2θ) using 40 kV/40 mA generator settings. Measurements were carried out from 2-90% RH, with a final measurement taken at 40% RH.
VH-XRPD analysis was carried out on a Philips X'Pert Pro Multipurpose diffractometer equipped with a humidity chamber. The samples were scanned between 4 and 36° 2θ using Cu K radiation (α1 λ=1.54060 Å; α2=1.54443 Å; β=1.39225 Å; α1:α2 ratio=0.5; most, if not all, β radiation is removed from the beam using an X-ray mirror) running in Bragg-Brentano geometry (step size 0.008° 2θ) using 40 kV/40 mA generator settings. Measurements were carried out from 6-90% relative humidity (RH), with a final measurement taken at 40% RH.

[3] = Karl Fischer coulometric titration (water content)
Method: In the examples below, KF titration measured using either an In Motion KF Autosampler or Direct Addition Method. The In Motion KF Autosampler was carried out via the following procedure. 15-20 mg of solid was weighed into a 10 mL glass vial and tightly sealed with a screw cap. Samples were analyzed using a Mettler Toledo C30SX and an InMotion KFOven Autosampler at 130° C. Samples were analyzed in duplicate and an average moisture content reported. See table below for further details.
The Direct Addition Method was carried out via the following procedure. 15-20 mg of solid material was accurately weighed into a vial. The solid was then manually introduced into the titration cell of a Mettler Toledo C30 Compact Titrator. The vial was back-weighed after the addition of the solid and the weight of the added solid entered on the instrument. Titration was initiated once the sample had fully dissolved in the cell. The water content was calculated automatically by the instrument as a percentage and the data printed.

[4] = pH solubility studies in buffers and biorelevant media (Example 16); design: key: A: amorphous; Crystalline Form 10 mono(hydrogen sulfate); details: pH 6.8 (Phosphate), 24 h
Method: as §1

[5] = Variable Temperature X-Ray Powder Diffraction (VT-XRPD); design: key: Crystalline Form 3 di(hydrogen sulfate); Crystalline Form 9 di(hydrogen sulfate); Melt/Amorphous
Method: In the examples below, VT-XRPD analysis was carried out on a Philips X'Pert Pro Multipurpose diffractometer equipped with a temperature chamber. The samples were scanned between 4 and 36° 2θ using Cu K radiation (α1 λ=1.54060 Å; α2=1.54443 Å; β=1.39225 Å; α1: α2 ratio=0.5; most, if not all, B radiation is removed from the beam using an X-ray mirror) running in Bragg-Brentano geometry (step size 0.008° 2θ) using 40 kV/40 mA generator settings. Measurements were carried out from ambient temperature to an upper limit of 250° C., with a final measurement taken after cooling.
VT-XRPD analysis was carried out on a Philips X'Pert Pro Multipurpose diffractometer equipped with a temperature chamber. The samples were scanned between 4 and 36° 2θ using Cu K radiation (α1 λ=1.54060 Å; α2=1.54443 Å; β2=1.39225 Å; α1:α2 ratio=0.5; most, if not all, β radiation is removed from the beam using an X-ray mirror) running in Bragg-Brentano geometry (step size 0.008° 2θ) using 40 kV/40 mA generator settings. Measurements were carried out from ambient temperature to an upper limit of 250° C., with a final measurement taken after cooling.

[6] = FaSSGF, 25° C., pH after 24 h 0.87
[7] = FaSSIF, 25° C., pH after 24 h 1.10
[8] = FeSSIF, 25° C., pH after 24 h 1.01, Cloudy
[9] = pH 1.2 (HCl/KCl), attempt 1, 25° C., pH after 24 h 1.13
[10] = pH 4.5 (Acetate), attempt 1, 25° C., pH after 24 h 4.76→4.58
[11] = pH 4.5 (Acetate), attempt 2, 25° C., pH after 24 h 4.88→4.56
[12] = pH 6.8 (Phosphate), attempt 1, 25° C., pH after 24 h 5.57→6.70
[13] = pH 6.8 (Phosphate), attempt 2, 25° C., pH after 24 h 1.57→6.71

Compound `COc1cc(C(=O)O[C@@H]2CCCOc3cc(cc(OC)c3OC)C(=O)NCCCN3CCCN(CC2)CC3)cc(OC)c1OC.O=S(=O)(O)O.O=S(=O)(O)O` [crystalline Form 3 Compound 1 di(hydrogen sulfate)] has an ML purity [1, 6] of 99.51 % area, a Solub. [1, 6] of 72.0 mg/mL and an ML purity [1, 7] of 99.76 % area. For the same compound, the Solub. [1, 7] was 77.1 mg/mL, the ML purity [1, 8] was 99.90 % area and the Solub. [1, 8] was at least 208.3 mg/mL. The “solution purity of the extracted mother liquors” value ([1]; after 24 hours slurrying in the media (Form 2: all samples except pH 4.5 Attempt 1)) was over 95 % area, the solubility ([1]; all the media assessed, except the pH 4.5 media, 25° C.) was over 50 mg/mL and the pH solubility ([1]; pH 1.2) was “pH 1.2: 76 mg/mL”. For the same compound, the “pH solubility: residual solid” value ([1]; pH 1.2) was “mg/mL, Form 2”, the ML purity [1, 9] was 99.56 % area and the Solub. [1, 9] was 75.7 mg/mL. The pH solubility ([1]; pH 4.5) was “pH 4.5: 54 mg/mL”, the “pH solubility: residual solid” value ([1]; pH 4.5) was “mg/mL, Form 4” and the ML purity [1, 10] was 99.59 % area. The Solub. [1, 10] was 54.2 mg/mL, the ML purity [1, 11] was 95.53 % area and the Solub. [1, 11] was 20.0 mg/mL. The solubility ([1]; pH 4.5 media, Attempt 2, 25° C.) was 20 mg/mL, the pH solubility ([1]; pH 6.8) was “pH 6.8: 150 mg/mL” and the “pH solubility: residual solid” value ([1]; pH 6.8) was “mg/mL, Gum”. The ML purity [1, 12] was 99.87 % area, the Solub. [1, 12] was 122.5 mg/mL and the ML purity [1, 13] was 99.16 % area. The Solub. [1, 13] was 152.8 mg/mL, the “VH-XRPD: Conv. To Form 6→Form 2 at” value [2] was “Form 2 at ≥70% RH” and the “VH-XRPD: input form retained at” value [2] was “at 10-60% RH”. The “relative humidity range in which peaks of crystalline Form 6 Compound 1 di(hydrogen sulfate) are observed in addition” value [2] was 70-80 % RH, the “relative humidity range in which the form is retained (VH-XRPD)” value [2] was 2-60 % RH and the “relative humidity at which conversion to crystalline Form 2 Compound 1 di(hydrogen sulfate) trihydrate is observed” value ([2]; Form 3: after extended exposure) was at least 80 % RH. For the same compound, the KF moisture content [3] was 1.89% moisture, the “XRPD of residual solids” value ([4]; attempt 1, 25° C.) was “A” and the “XRPD of residual solids” value ([4]; attempt 2, 25° C.) was “A”. The “VT-XRPD Results” value ([5]; Cooling, 30° C., hold 10 min) was 9, the “VT-XRPD Results” value ([5]; Heating, 70° C., hold 30 min) was 9 and the “VT-XRPD Results” value ([5]; Heating, 90° C., hold 30 min) was 9. The “VT-XRPD Results” value ([5]; Heating, 105° C., hold 30 min) was 9, the “VT-XRPD Results” value ([5]; second Heating, 120° C., hold 30 min) was 9 and the “VT-XRPD Results” value ([5]; second Heating, 130° C., hold 30 min) was 9. For the same compound, the “VT-XRPD Results” value ([5]; second Heating, 140° C., hold 30 min) was 9, the “VT-XRPD Results” value ([5]; second Heating, 150° C., hold 30 min) was 9 and the “VT-XRPD Results” value ([5]; second Heating, 160° C., hold 30 min) was 9 and Melt.
